In publication PMC7497630, “Coibamide A Targets Sec61 to Prevent Biogenesis of Secretory and Membrane Proteins” (ACS Chemical Biology, 2020):

How the values were obtained:
NCI-H226 = conditions: published NCI60 panel data, ref 1 (Coibamide A), 2 (Apratoxin A), 3 (Ipomoeassin F); cited from earlier work
MALME-3M = conditions: published NCI60 panel data, ref 1 (Coibamide A), 2 (Apratoxin A), 3 (Ipomoeassin F); cited from earlier work
UACC-62 = conditions: published NCI60 panel data, ref 1 (Coibamide A), 2 (Apratoxin A), 3 (Ipomoeassin F); cited from earlier work
HOP-62 = conditions: published NCI60 panel data, ref 1 (Coibamide A), 2 (Apratoxin A), 3 (Ipomoeassin F); cited from earlier work
TK-10 = conditions: published NCI60 panel data, ref 1 (Coibamide A), 2 (Apratoxin A), 3 (Ipomoeassin F); cited from earlier work
SN12C = conditions: published NCI60 panel data, ref 1 (Coibamide A), 2 (Apratoxin A), 3 (Ipomoeassin F); cited from earlier work
SK-MEL-28 = conditions: published NCI60 panel data, ref 1 (Coibamide A), 2 (Apratoxin A), 3 (Ipomoeassin F); cited from earlier work
DU-145 = conditions: published NCI60 panel data, ref 1 (Coibamide A), 2 (Apratoxin A), 3 (Ipomoeassin F); cited from earlier work
MOLT-4 = conditions: published NCI60 panel data, ref 1 (Coibamide A), 2 (Apratoxin A), 3 (Ipomoeassin F); cited from earlier work
SF-268 = conditions: published NCI60 panel data, ref 1 (Coibamide A), 2 (Apratoxin A), 3 (Ipomoeassin F); cited from earlier work
LOX IMVI = conditions: published NCI60 panel data, ref 1 (Coibamide A), 2 (Apratoxin A), 3 (Ipomoeassin F); cited from earlier work
NCI-H23 = conditions: published NCI60 panel data, ref 1 (Coibamide A), 2 (Apratoxin A), 3 (Ipomoeassin F); cited from earlier work
UACC-257 = conditions: published NCI60 panel data, ref 1 (Coibamide A), 2 (Apratoxin A), 3 (Ipomoeassin F); cited from earlier work
A498 = conditions: published NCI60 panel data, ref 1 (Coibamide A), 2 (Apratoxin A), 3 (Ipomoeassin F); cited from earlier work
UO-31 = conditions: published NCI60 panel data, ref 1 (Coibamide A), 2 (Apratoxin A), 3 (Ipomoeassin F); cited from earlier work
SNB-75 = conditions: published NCI60 panel data, ref 1 (Coibamide A), 2 (Apratoxin A), 3 (Ipomoeassin F); cited from earlier work
RPMI-8226 = conditions: published NCI60 panel data, ref 1 (Coibamide A), 2 (Apratoxin A), 3 (Ipomoeassin F); cited from earlier work
SF-539 = conditions: published NCI60 panel data, ref 1 (Coibamide A), 2 (Apratoxin A), 3 (Ipomoeassin F); cited from earlier work
IGROV1 = conditions: published NCI60 panel data, ref 1 (Coibamide A), 2 (Apratoxin A), 3 (Ipomoeassin F); cited from earlier work
OVCAR3 = conditions: published NCI60 panel data, ref 1 (Coibamide A), 2 (Apratoxin A), 3 (Ipomoeassin F); cited from earlier work
NCI-H460 = conditions: published NCI60 panel data, ref 1 (Coibamide A), 2 (Apratoxin A), 3 (Ipomoeassin F); cited from earlier work
A549/ATCC = conditions: published NCI60 panel data, ref 1 (Coibamide A), 2 (Apratoxin A), 3 (Ipomoeassin F); cited from earlier work
HL-60 (TB) = conditions: published NCI60 panel data; cited from earlier work
NCI-H322M = conditions: published NCI60 panel data, ref 1 (Coibamide A), 2 (Apratoxin A), 3 (Ipomoeassin F); cited from earlier work
SK-MEL-5 = conditions: published NCI60 panel data, ref 1 (Coibamide A), 2 (Apratoxin A), 3 (Ipomoeassin F); cited from earlier work
NCI-H522 = conditions: published NCI60 panel data, ref 1 (Coibamide A), 2 (Apratoxin A), 3 (Ipomoeassin F); cited from earlier work
HS 578T = conditions: published NCI60 panel data, ref 1 (Coibamide A), 2 (Apratoxin A), 3 (Ipomoeassin F); cited from earlier work
SNB-19 = conditions: published NCI60 panel data, ref 1 (Coibamide A), 2 (Apratoxin A), 3 (Ipomoeassin F); cited from earlier work
OVCAR4 = conditions: published NCI60 panel data, ref 1 (Coibamide A), 2 (Apratoxin A), 3 (Ipomoeassin F); cited from earlier work
SF-295 = conditions: published NCI60 panel data, ref 1 (Coibamide A), 2 (Apratoxin A), 3 (Ipomoeassin F); cited from earlier work
BT-549 = conditions: published NCI60 panel data, ref 1 (Coibamide A), 2 (Apratoxin A), 3 (Ipomoeassin F); cited from earlier work
MCF7 = conditions: published NCI60 panel data, ref 1 (Coibamide A), 2 (Apratoxin A), 3 (Ipomoeassin F); cited from earlier work
SK-MEL-2 = conditions: published NCI60 panel data, ref 1 (Coibamide A), 2 (Apratoxin A), 3 (Ipomoeassin F); cited from earlier work
HCT-15 = conditions: published NCI60 panel data, ref 1 (Coibamide A), 2 (Apratoxin A), 3 (Ipomoeassin F); cited from earlier work
M14 = conditions: published NCI60 panel data, ref 1 (Coibamide A), 2 (Apratoxin A), 3 (Ipomoeassin F); cited from earlier work
COLO 205 = conditions: published NCI60 panel data, ref 1 (Coibamide A), 2 (Apratoxin A), 3 (Ipomoeassin F); cited from earlier work
HOP-92 = conditions: published NCI60 panel data, ref 1 (Coibamide A), 2 (Apratoxin A), 3 (Ipomoeassin F); cited from earlier work
NCI/ADR-RES = conditions: published NCI60 panel data, ref 1 (Coibamide A), 2 (Apratoxin A), 3 (Ipomoeassin F); cited from earlier work
T-47D = conditions: published NCI60 panel data, ref 1 (Coibamide A), 2 (Apratoxin A), 3 (Ipomoeassin F); cited from earlier work
786-0 = conditions: published NCI60 panel data, ref 1 (Coibamide A), 2 (Apratoxin A), 3 (Ipomoeassin F); cited from earlier work
SW-620 = conditions: published NCI60 panel data, ref 1 (Coibamide A), 2 (Apratoxin A), 3 (Ipomoeassin F); cited from earlier work
OVCAR8 = conditions: published NCI60 panel data, ref 1 (Coibamide A), 2 (Apratoxin A), 3 (Ipomoeassin F); cited from earlier work
EKVX = conditions: published NCI60 panel data, ref 1 (Coibamide A), 2 (Apratoxin A), 3 (Ipomoeassin F); cited from earlier work
SR = conditions: published NCI60 panel data, ref 1 (Coibamide A), 2 (Apratoxin A), 3 (Ipomoeassin F); cited from earlier work
MDA-MB-435 = conditions: published NCI60 panel data, ref 1 (Coibamide A), 2 (Apratoxin A), 3 (Ipomoeassin F); cited from earlier work
MDA-MB-231/ATCC = conditions: published NCI60 panel data, ref 1 (Coibamide A), 2 (Apratoxin A), 3 (Ipomoeassin F); cited from earlier work
HT29 = conditions: published NCI60 panel data, ref 1 (Coibamide A), 2 (Apratoxin A), 3 (Ipomoeassin F); cited from earlier work
PC-3 = conditions: published NCI60 panel data, ref 1 (Coibamide A), 2 (Apratoxin A), 3 (Ipomoeassin F); cited from earlier work
SK-OV-3 = conditions: published NCI60 panel data, ref 1 (Coibamide A), 2 (Apratoxin A), 3 (Ipomoeassin F); cited from earlier work
KM12 = conditions: published NCI60 panel data, ref 1 (Coibamide A), 2 (Apratoxin A), 3 (Ipomoeassin F); cited from earlier work
HCC-2998 = conditions: published NCI60 panel data, ref 1 (Coibamide A), 2 (Apratoxin A), 3 (Ipomoeassin F); cited from earlier work
OVCAR5 = conditions: published NCI60 panel data, ref 1 (Coibamide A), 2 (Apratoxin A), 3 (Ipomoeassin F); cited from earlier work
HCT-116 = conditions: published NCI60 panel data, ref 1 (Coibamide A), 2 (Apratoxin A), 3 (Ipomoeassin F); cited from earlier work
RXF 393 = conditions: published NCI60 panel data, ref 1 (Coibamide A), 2 (Apratoxin A), 3 (Ipomoeassin F); cited from earlier work
U251 = conditions: published NCI60 panel data, ref 1 (Coibamide A), 2 (Apratoxin A), 3 (Ipomoeassin F); cited from earlier work
CCRF-CEM = conditions: published NCI60 panel data, ref 1 (Coibamide A), 2 (Apratoxin A), 3 (Ipomoeassin F); cited from earlier work
K-562 = conditions: published NCI60 panel data, ref 1 (Coibamide A), 2 (Apratoxin A), 3 (Ipomoeassin F); cited from earlier work
Sec61α = assay: Photoaffinity labeling competition in sheep rough microsomes; format: binding; conditions: SRM with 100 nM Sec61, 30 min with competitor, then 100 nM photo-CbA, UV 10 min, TAMRA in-gel fluorescence
Protocol: Figure 2 Photo-cross-linking of photo-CbA to Sec61α and CbA stabilization of Sec61 in cells. Photocotransin (CT7) or photocoibamide (pCbA) cross-linking to cells or sheep rough microsomes (SRM). Samples were photolyzed and the covalent adduct detected by click-chemistry to TAMRA-azide reporter and in-gel fluorescence scanning and Western blotting. (A) A431 cell lines were first incubated with CbA or carrier, followed by incubation with photo-CbA, photolysis, and click chemistry. Following SDS PAGE, lysates were queried for in gel fluorescence and subsequently transferred for anti-Sec61α and anti-FLAG Western Blot. Arrows indicate Sec61 (with or without a 10 kDa insert), star indicates nonspecific WB signal, triangle indicates free TAMRA dye within the gel. (B) As in A but in SRMs. […] Heat-treated cell suspensions were snap frozen, lysates cleared by centrifugation, and the soluble fraction analyzed by SDS-PAGE and Western blotting. […] (F) Quantification of immunoblot data shown in E. Sec61α band intensity was normalized to tubulin, and data points were fitted using nonlinear regression analysis.
The photoaffinity labeling and click chemistry with microsomes were done as previously described.[17] […] The labeled proteins were analyzed by SDS-PAGE and in-gel fluorescence. […]

## C/C=C(\C)C(=O)O[C@@H]1[C@@H](O)[C@@H]2O[C@H]3[C@H](O[C@@H](CCCCC)CCCCCCC(=O)CCC(=O)OC[C@@H](O2)[C@H]1OC(=O)/C=C/c1ccccc1)O[C@H](C)[C@H](OC(C)=O)[C@@H]3O [IpoF, ipomoeassin F]
NCI-H226
  GI50: 276 nM
MALME-3M
  GI50: 57.8 nM
UACC-62
  GI50: 15.3 nM
HOP-62
  GI50: 10 nM
TK-10
  GI50: 15.2 nM
SN12C
  GI50: 10 nM
SK-MEL-28
  GI50: 17.5 nM
DU-145
  GI50: 31.9 nM
MOLT-4
  GI50: 3.42 µM
SF-268
  GI50: 115 nM
LOX IMVI
  GI50: 10 nM
NCI-H23
  GI50: 213 nM
UACC-257
  GI50: 11.9 nM
A498
  GI50: 315 nM
UO-31
  GI50: 10 nM
SNB-75
  GI50: 10 nM
RPMI-8226
  GI50: 10 nM
SF-539
  GI50: 10 nM
IGROV1
  GI50: 26.7 nM
OVCAR3
  GI50: 28.3 nM
NCI-H460
  GI50: 10 nM
A549/ATCC
  GI50: 10 nM
HL-60 (TB)
  GI50: 49 nM
NCI-H322M
  GI50: 391 nM
SK-MEL-5
  GI50: 10 nM
NCI-H522
  GI50: 27.9 nM
HS 578T
  GI50: 10 nM
SNB-19
  GI50: 129 nM
OVCAR4
  GI50: 1580 nM
SF-295
  GI50: 10 nM
BT-549
  GI50: 17.9 nM
MCF7
  GI50: 10 nM
SK-MEL-2
  GI50: 445 nM
HCT-15
  GI50: 29.8 nM
M14
  GI50: 10 nM
COLO 205
  GI50: 10 nM
HOP-92
  GI50: 10 nM
NCI/ADR-RES
  GI50: 297 nM
T-47D
  GI50: 10 nM
786-0
  GI50: 30.1 nM
SW-620
  GI50: 10 nM
OVCAR8
  GI50: 117 nM
EKVX
  GI50: 10 nM
SR
  GI50: 14.4 nM
MDA-MB-435
  GI50: 10 nM
MDA-MB-231/ATCC
  GI50: 10 nM
HT29
  GI50: 10 nM
PC-3
  GI50: 10 nM
SK-OV-3
  GI50: 38.4 nM
KM12
  GI50: 10 nM
HCC-2998
  GI50: 1180 nM
OVCAR5
  GI50: 1230 nM
HCT-116
  GI50: 10 nM
RXF 393
  GI50: 10 nM
U251
  GI50: 10 nM
CCRF-CEM
  GI50: 741 nM
K-562
  GI50: 10 nM

## CC(=C\C=C\C(C)=C\[C@H](O)[C@@H](O)C[C@H](C)O)/C=C(C)/C=C/C(=O)O[C@H]1CCCC(=O)O[C@@H]([C@@H](C)C/C(C)=C/[C@@H](C)[C@H](O)C[C@@H](C)O)C/C=C(\C)C[C@@H]1C [mycolactone]
Sec61α
  competition of photo-CbA cross-linking to Sec61α: prevented photo-CbA cross-linking in a concentration-dependent manner
